Read-outs that look alike come from different tables or passages of the source.
Assays:
THIK-1 = target: T1, THIK-1 (Homo sapiens, UniProt Q9HB14); experiment: Thallium flux functional wash-off assay, HEK-hTHIK-1 cells; type: cell-based
T1 construct: expressed in transfected cells
T1 sequence (Q9HB14 1-408): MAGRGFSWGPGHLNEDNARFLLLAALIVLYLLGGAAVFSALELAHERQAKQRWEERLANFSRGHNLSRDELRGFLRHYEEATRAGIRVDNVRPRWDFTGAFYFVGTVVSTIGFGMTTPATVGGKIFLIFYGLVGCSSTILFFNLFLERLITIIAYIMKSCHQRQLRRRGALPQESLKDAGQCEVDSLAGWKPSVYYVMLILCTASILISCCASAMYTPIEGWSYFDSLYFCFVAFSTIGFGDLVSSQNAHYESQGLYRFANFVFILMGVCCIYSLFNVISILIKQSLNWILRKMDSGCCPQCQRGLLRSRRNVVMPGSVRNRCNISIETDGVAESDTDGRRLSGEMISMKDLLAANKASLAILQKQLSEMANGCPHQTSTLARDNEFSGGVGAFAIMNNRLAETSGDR
Procedure: A fluorescence-based thallium influx assay (Molecular Devices potassium assay kit) was used to monitor channel activity. In brief, component A was reconstituted in 17 ml of chloride-free assay buffer (130 mM sodium D-gluconate, 5 mM potassium D-gluconate, 2 mM calcium D-gluconate, 1 mM magnesium D-gluconate, 5 mM NaHCO3, 20 mM HEPES; pH adjusted to 7.4 with NaOH and filtered (0.45 μm filter)) and component C reconstituted in 30 μl of DMSO. Components A and C were combined, and probenecid was added (Life Technologies; final assay concentration (FAC) 4.75 mM for HEK cell lines and 2.47 mM for CHO-Kv2.1) to provide the final dye solution. Media was removed from the cell plates and replaced with dye (20 μl/well) and the plates were incubated at room temperature in the dark for 60 min. On the day of the assay, a diluted compound plate (3x FAC in 1.5% DMSO) was created. Control wells contained either DMSO vehicle (1.5%, 3x FAC) or tetrapentylammonium chloride (TPA; Sigma, 258962; 1.5 mM in 1.5% DMSO, 3x FAC). A 3x thallium stimulation plate was also prepared, to provide a FAC of either 1 mM (human THIK-1) or 3 mM (mouse THIK-1, TREK-1, TWIK-2) thallium sulphate (in assay buffer). For Kv2.1, the FAC of thallium sulphate was 2.6 mM and this was prepared in assay buffer containing potassium sulphate (Sigma P9458; FAC 23.3 mM). Following 60 min of dye loading, 10 μl from the 3x FAC compound plate was added into the cell plate, which was then incubated for 15 min at room temperature in the dark. Using a fluorescent imaging plate reader (FLIPR) tetra plate reader, 15 μl thallium stimulus solution was added to the cell plate and the fluorescence signal recorded every second for 1 min (excitation: 470–495 nm, emission: 515–575 nm).
For the functional wash-off assay, plates were tested in parallel that were run as standard (no wash) with plates that had undergone an additional assay buffer wash and incubation period following compound addition. Briefly, after a 15 min compound incubation, plates were either moved to the FLIPR for immediate thallium addition (standard) or the plates were washed with assay buffer to remove compound solutions (50 μl/well addition and removal), 30 μl/well assay buffer added and the plates incubated for 60 min, followed by thallium addition on the FLIPR (60 min wash).

[1] = target: T2, THIK-1 K+ currents in microglia (Mus musculus, UniProt Q8R1P5); experiment: Whole-cell patch clamp of microglia in acute hippocampal slices, wild-type mice; type: cell-based
T2 construct: To study the effect of C10248 in native brain tissue; from tissue; host or cells: microglia in acute hippocampal slices of 3-4 month old Cx3Cr1-GFP mice
Procedure: Acute hippocampal slices (300 μm thick), from 3 to 4 months old mice, were prepared using a specially adapted protective slicing solution ([Ting et al., 2014]) containing (mM) 93 choline chloride, 20 HEPES, 30 NaHCO3, 2.5 KCl, 0.5 CaCl2, 10 MgCl2, 1.2 NaH2PO4, 25 glucose, 1 kynurenic acid, 5 Na-ascorbate, 3 Na-pyruvate, pH adjusted to 7.4, bubbled with 95% O2/5% CO2 and cooled at <4 °C, and a recovery solution containing (mM) 92 NaCl, 20 HEPES, 30 NaHCO3, 2.5 KCl, 2 CaCl2, 1 MgCl2, 1.2 NaH2PO4, 25 glucose, 1 kynurenic acid, 5 Na-ascorbate, 3 Na-pyruvate, pH set to 7.4 and bubbled with 95% O2/5% CO2
Immediately after slicing, slices were placed for 13 min in warm (33–35 °C) slicing solution and then transferred to recovery solution at room temperature until experimental usage. […] Slices were perfused with bicarbonate-buffered solution, at 34–36 °C for all experiments, containing (mM) 124 NaCl, 2.5 KCl, 26 NaHCO3, 1 NaH2PO4, 2 CaCl2, 1 MgCl2, 10 glucose, bubbled with 95% O2/5% CO2. Microglia were whole-cell clamped with electrodes containing K-gluconate based solution, comprising (mM) 130 K-glu, 4 NaCl, 1 CaCl2, 10 HEPES, 10 EGTA, 4 MgATP, 0.5 Na2GTP, pH set to 7.2 with KOH and osmolarity adjusted to […]. […] Currents were filtered at 1 kHz, digitized (10 kHz) and analysed off-line using pClamp10 software.

T2 sequence (Q8R1P5 whole entry): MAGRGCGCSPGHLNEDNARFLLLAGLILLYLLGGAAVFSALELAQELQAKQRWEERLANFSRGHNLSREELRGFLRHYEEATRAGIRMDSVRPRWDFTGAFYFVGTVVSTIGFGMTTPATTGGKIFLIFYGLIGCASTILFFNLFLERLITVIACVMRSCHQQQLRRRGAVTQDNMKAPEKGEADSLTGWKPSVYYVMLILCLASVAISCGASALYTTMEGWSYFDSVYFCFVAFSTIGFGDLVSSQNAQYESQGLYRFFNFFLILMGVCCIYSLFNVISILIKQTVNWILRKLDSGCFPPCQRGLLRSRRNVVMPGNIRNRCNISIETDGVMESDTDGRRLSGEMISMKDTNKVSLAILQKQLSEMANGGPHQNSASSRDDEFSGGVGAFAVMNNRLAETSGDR

Q: `Nc1nonc1-c1nc2ccccc2n1Cc1ccncc1` [C101248] was tested. Which “Hill slope (nH)” value (THIK-1; 60 min wash) did it give?
A: 0.54

Q: What about the “maximum inhibition (60 min wash)” value (THIK-1; 60 min wash) of the same compound?
A: 93%

Q: And the “lower potency after 60 min wash-off compared to standard format” value (THIK-1; 60 min wash vs no wash)?
A: 3.4 fold

Q: And the IC50 (THIK-1; compound removed, 60 min incubation in buffer before thallium, read-out: IC50 (60 min wash))?
A: 96 nM

Q: What about the “Hill slope (nH)” value (THIK-1; no wash) of the same compound?
A: 1.3

Q: And the “maximum inhibition (no wash)” value (THIK-1; no wash)?
A: 101%

Q: What about the IC50 (THIK-1; standard format, 15 min compound incubation, immediate thallium addition, read-out: IC50 (no wash)) of the same compound?
A: 28 nM

Q: And the “effect on microglial resting membrane potential” value ([1]; 5 μM, current-clamp, no externally applied ATP)?
A: significantly depolarised

Q: What about the “effect on 100 μM ATP-evoked THIK-1 K+ currents” value ([1]; 0.05, 0.5 and 5 μM, microglia voltage-clamped at 0 mV) of the same compound?
A: dose-dependently inhibited
